ChEMBL document CHEMBL3272262, “Basic derivatives of 6,7-dihydroindolo(1,7-ab)(1) benzazepine and 6H-indolo(7,1-cd)(1,5) benzoxazepine as potential antidepressant agents” (J Med Chem, 1976)
Converted amounts (≈) assume the structure as drawn.

Assays:
[1] = test system: Mus musculus; assay: Toxicity in po dosed Swiss mouse assessed as behavioral changes; assay type: organism-based; conditions: in vivo
[2] = Acute toxicity in po dosed Swiss mouse assessed as mortality after 7 days; assay type: organism-based; conditions: in vivo
[3] = test system: Mus musculus; assay: Antidepressant activity in po dosed Swiss mouse assessed as reversal of reserpine-induced ptosis administered 1 hr prior to reserpine challenge; assay type: functional
[4] = test system: Mus musculus; assay: Antidepressant activity in po dosed Swiss mouse assessed as reversal of reserpine-induced hypothermia measured over 5 hrs; assay type: functional
[5] = test system: Ileum; assay: Antispasmodic activity in guinea pig ileum assessed as inhibition of acetylcholine-induced spasm; assay type: functional; conditions: Cavia porcellus, read-out: ED50 (the source's name)
[6] = test system: Ileum; assay: Antispasmodic activity in guinea pig ileum assessed as inhibition of histamine-induced spasm; assay type: functional; conditions: Cavia porcellus, read-out: ED50 (the source's name)

SMILES | Activity [1] | LD50 at 168 h [2] [mg/kg] | MED50 [3] [mg/kg] | MED50 [4] [mg/kg] | EC50 [5] [µg/mL] | EC50 [6] [µg/mL]
Cc1c(CN(C)C)c2cccc3c2n1-c1ccccc1CC3 | Non-toxic | 450 | >50 | >50 |  | 
CN(C)CCc1cc2cccc3c2n1-c1ccccc1OC3.Cl | Non-toxic | 195 | 3 | 50 | 10 | 1
CN(C)CCc1c(-c2ccccc2)c2cccc3c2n1-c1ccccc1CC3 | Non-toxic | 1900 | >50 | >50 |  | 
Cl.c1ccc(CN(CCc2cc3cccc4c3n2-c2ccccc2CC4)Cc2ccccc2)cc1 | Non-toxic | 1400 | 50 | > 50 | > 10 | > 10
CNCCc1c(C)c2cccc3c2n1-c1ccccc1CC3.Cl | Non-toxic | 390 | 2.5 | >50 | 6 | 5
CN(C)Cc1cn2c3c(cccc13)CCc1ccccc1-2.Cl | Non-toxic | 170 | >50 | >50 |  | 
Cc1c(CCN(C)Cc2ccccc2)n2c3c(cccc13)CCc1ccccc1-2.Cl | Non-toxic | > 4000 | >50 | >50 |  | 
CNCCc1cc2cccc3c2n1-c1ccccc1CC3.Cl | Non-toxic | 410 | 1 | 2.5 | 4 | 0.6
CN(CCc1cc2cccc3c2n1-c1ccccc1CC3)Cc1ccccc1.Cl [AZIPRAMINE HYDROCHLORIDE] | Non-toxic | > 4000 | 3.5 | 5 | > 5 | > 5
Cc1c(CCN(C)C)n2c3c(cccc13)COc1ccccc1-2.Cl | Non-toxic | 310 | 10 | >50 |  | 
CN(C)CCCN1c2ccccc2CCc2ccccc21 [IMIPRAMINE] |  |  | 2.5 | 2.5 | 0.3 (≈ 1.07 µM) | 0.006 (≈ 0.0214 µM)
Cc1c(CCN(C)C)n2c3c(cccc13)CCc1ccccc1-2 | Non-toxic | 195 | 7.5 | >50 | > 10 | > 10
CN(C)Cc1c(-c2ccccc2)n2c3c(cccc13)CCc1ccccc1-2 | Non-toxic | 1600 | >50 | >50 |  | 
CN(C)CCc1cc2cccc3c2n1-c1ccccc1CC3 | Non-toxic | 420 | 2 | 5 | 1 (≈ 3.44 µM) | 0.2 (≈ 0.689 µM)
CN(C)Cc1cc2cccc3c2n1-c1ccccc1CC3 | Non-toxic | 210 | >50 | >50 |  | 
